# Test results: patent US11242350B2, “Spirocyclic ROR-gamma modulators” (Escalier Biosciences B.V., priority 2018, dated 2022)
# Target: RORγt (Homo sapiens (Human), UniProt P51449)
# Test: Gal4 ligand binding assay (RORγt Gal fusion luciferase reporter assay in HEK293T cells)
# Type: cell-based
# Details: RORγt inverse agonists in RORγt Gal fusion assay
# Protocol: The N-terminal DNA binding domains (DBD) of the native RORγ and RORγt receptors have been substituted with that of the yeast GAL4-DBD and stably transfected in HEK293T cells that also stably express luciferase under the regulation by upstream activation sequence of yeast Gal4. These cells constitutively express high level RORγ activity due to binding of endogenous co-factors. Both agonist and inverse agonist activity can be detected. The assay was performed according to kit manufacturer's instructions as follows. 10 mM compound stocks were diluted serially 1:3 with DMSO and further diluted with provided media to generate 10 titration points from 60 μM to 3 nM. These treatment conditions were added to the plates as 2× media in 100 μL volume. Each plate includes a positive control with 10 titration points as well as 6 negative control wells with vehicle only, with final DMSO concentration of 0.2%. RORγ reporter cells were rapidly thawed and added to the plates in 100 μL volume. The plates were incubated for 24 h in a 37° C. humidified 5% CO2 incubator. Media was removed before the addition of room temperature luciferous detection substrate. After 5 minute incubation, relative light units (RLUs) were quantified using a plate reading luminometer. Data was normalized to […] with only 0.2%0DMSO. Before establishing internal controls, ursolic acid was used as control.
# Sequence of RORγt (P51449 269-508): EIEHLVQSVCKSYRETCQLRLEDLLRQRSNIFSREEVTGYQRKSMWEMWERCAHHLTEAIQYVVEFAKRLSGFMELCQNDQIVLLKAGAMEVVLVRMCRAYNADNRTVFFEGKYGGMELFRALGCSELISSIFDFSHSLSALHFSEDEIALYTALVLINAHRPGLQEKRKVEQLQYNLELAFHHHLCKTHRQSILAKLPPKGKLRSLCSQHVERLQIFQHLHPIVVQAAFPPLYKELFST
row,Compound,IC50 [nM]
1,"CCc1cc(CN2CCC(CS(C)(=O)=O)CC2)ccc1-c1ccc(C(O)(C(F)(F)F)C(F)(F)F)cc1 [Example 9, 2-(2′-ethyl-4′-((4-((methylsulfonyl)methyl)piperidin-1-yl)methyl)-[1,1′-biphenyl]-4-yl)-1,1,1,3,3,3-hexafluoropropan-2-ol]",50 to 250
2,"CS(=O)(=O)N1CC2(CN(Cc3ccc(-c4ccc(C(O)(C(F)(F)F)C(F)(F)F)cc4)c(Br)c3)C2)C1 [Example 45, 2-(2′-bromo-4′-((6-(methylsulfonyl)-2,6-diazaspiro[3.3]heptan-2-yl)methyl)-[1,1′-biphenyl]-4-yl)-1,1,1,3,3,3-hexafluoropropan-2-ol]",50 to 250
3,"CCc1cc(CN2CC3(CCN(S(C)(=O)=O)C3)C2)ccc1-c1ccc(C(O)(C(F)(F)F)C(F)(F)F)cc1 [Example 6, 2-(2′-ethyl-4′-((6-(methylsulfonyl)-2,6-diazaspiro[3.4]octan-2-yl)methyl)-[1,1′-biphenyl]-4-yl)-1,1,1,3,3,3-hexafluoropropan-2-ol]",50 to 250
4,"CCc1nc(CN2CC3(C2)CN(S(C)(=O)=O)C3)ccc1-c1ccc(C(O)(C(F)(F)F)C(F)(F)F)cc1C [Example 73, 2-(4-(2-ethyl-6-((6-(methylsulfonyl)-2,6-diazaspiro[3.3]heptan-2-yl)methyl)pyridin-3-yl)-3-methylphenyl)-1,1,1,3,3,3-hexafluoropropan-2-ol]",> 250
5,"CCc1cc(CN2CC3(CCN(S(C)(=O)=O)CC3)C2)ccc1-c1ccc(C(O)(C(F)(F)F)C(F)(F)F)cc1 [Example 33, 2-(2′-ethyl-4′-((7-(methylsulfonyl)-2,7-diazaspiro[3.5]nonan-2-yl)methyl)-[1,1′-biphenyl]-4-yl)-1,1,1,3,3,3-hexafluoropropan-2-ol]",50 to 250
6,"CCc1cc(CN2CC3(C2)CN(C(C)=O)C3)ccc1-c1ccc(C(O)(C(F)(F)F)C(F)(F)F)cc1 [Example 48, 1-(6-((2-ethyl-4′-(1,1,1,3,3,3-hexafluoro-2-hydroxypropan-2-yl)-[1,1′-biphenyl]-4-yl)methyl)-2,6-diazaspiro[3.3]heptan-2-yl)ethan-1-one]",> 250
7,"CCc1cc(CN2CC3(C2)CN(S(C)(=O)=O)C3)ccc1-c1ccc(C(O)(C(F)(F)F)C(F)(F)F)cn1 [Example 63, 2-(6-(2-ethyl-4-((6-(methylsulfonyl)-2,6-diazaspiro[3.3]heptan-2-yl)methyl)phenyl)pyridin-3-yl)-1,1,1,3,3,3-hexafluoropropan-2-ol]",50 to 250
8,"CCc1cc(CN2CC3(CCCN(S(C)(=O)=O)C3)C2)ccc1-c1ccc(C(O)(C(F)(F)F)C(F)(F)F)cc1 [Example 19, 2-(2′-ethyl-4′-((6-(methylsulfonyl)-2,6-diazaspiro[3.5]nonan-2-yl)methyl)-[1,1′-biphenyl]-4-yl)-1,1,1,3,3,3-hexafluoropropan-2-ol]",50 to 250
9,"Cc1cc(CN2CC3(CN(Cc4ccncc4)C3)C2)ccc1-c1ccc(C(O)(C(F)(F)F)C(F)(F)F)cc1 [Example 51, 1,1,1,3,3,3-hexafluoro-2-(2′-methyl-4′-((6-(pyridin-4-ylmethyl)-2,6-diazaspiro[3.3]heptan-2-yl)methyl)-[1,1′-biphenyl]-4-yl)propan-2-ol]",> 250
10,"CCc1cc(C(O)(C(F)(F)F)C(F)(F)F)ccc1-c1c(F)cc(CN2CC3(C2)CN(S(C)(=O)=O)C3)c(F)c1C1CC1 [Example 90, 2-(2′-cyclopropyl-2-ethyl-3′,6′-difluoro-4′-((6-(methylsulfonyl)-2,6-diazaspiro[3.3]heptan-2-yl)methyl)-[1,1′-biphenyl]-4-yl)-1,1,1,3,3,3-hexafluoropropan-2-ol]",< 50
11,"CCc1cc(CN2CCC3(CCN(S(C)(=O)=O)C3)C2)ccc1-c1ccc(C(O)(C(F)(F)F)C(F)(F)F)cc1 (stereo not shown) [Example 31, 2-(2′-ethyl-4′-((7-(methylsulfonyl)-2,7-diazaspiro[4.4]nonan-2-yl)methyl)-[1,1′-biphenyl]-4-yl)-1,1,1,3,3,3-hexafluoropropan-2-ol]",< 50
12,"CCC(C)c1cc(CN2CC3(C2)CN(S(C)(=O)=O)C3)ccc1-c1ccc(C(O)(C(F)(F)F)C(F)(F)F)cc1 (stereo not shown) [Example 13, 2-(2′-(sec-butyl)-4′-((6-(methylsulfonyl)-2,6-diazaspiro[3.3]heptan-2-yl)methyl)-[1,1′-biphenyl]-4-yl)-1,1,1,3,3,3-hexafluoropropan-2-ol]",< 50
13,"CCc1cc(CN2CCC(S(C)(=O)=O)CC2)ccc1-c1ccc(C(O)(C(F)(F)F)C(F)(F)F)cc1 [Example 10, 2-(2′-ethyl-4′-((4-(methylsulfonyl)piperidin-1-yl)methyl)-[1,1′-biphenyl]-4-yl)-1,1,1,3,3,3-hexafluoropropan-2-ol]",< 50
14,"Cc1cc(C(O)(C(F)(F)F)C(F)(F)F)ccc1-c1cccc(N2CC3(C2)CN(S(C)(=O)=O)C3)n1 [Example 67, 1,1,1,3,3,3-hexafluoro-2-(3-methyl-4-(6-(6-(methylsulfonyl)-2,6-diazaspiro[3.3]heptan-2-yl)pyridin-2-yl)phenyl)propan-2-ol]",> 250
15,"CS(=O)(=O)N1CC2(CN(Cc3cc(F)c(-c4ccc(C(O)(C(F)(F)F)C(F)(F)F)cc4)c(C4CC4)c3F)C2)C1 [Example 88, 2-(2′-cyclopropyl-3′,6′-difluoro-4′-((6-(methylsulfonyl)-2,6-diazaspiro[3.3]heptan-2-yl)methyl)-[1,1′-biphenyl]-4-yl)-1,1,1,3,3,3-hexafluoropropan-2-ol]",< 50
16,"CCc1cc(CN2CC3(C2)CN(S(C)(=O)=O)C3)cnc1-c1ccc(C(O)(C(F)(F)F)C(F)(F)F)cc1C [Example 62, 2-(4-(3-ethyl-5-((6-(methylsulfonyl)-2,6-diazaspiro[3.3]heptan-2-yl)methyl)pyridin-2-yl)-3-methylphenyl)-1,1,1,3,3,3-hexafluoropropan-2-ol]",50 to 250
17,"CC(C)c1cc(CN2CC3(C2)CN(S(C)(=O)=O)C3)c(F)c(F)c1-c1ccc(C(O)(C(F)(F)F)C(F)(F)F)cc1 [Example 14, 2-(2′,3′-difluoro-6′-isopropyl-4′-((6-(methylsulfonyl)-2,6-diazaspiro[3.3]heptan-2-yl)methyl)-[1,1′-biphenyl]-4-yl)-1,1,1,3,3,3-hexafluoropropan-2-ol]",< 50

# More lines, now with the values ahead:
row,IC50 [nM],Compound
1,< 50,"Cc1cc(C(O)(C(F)(F)F)C(F)(F)F)ccc1-c1c(F)cc(CN2CC3(C2)CN(S(C)(=O)=O)C3)c(F)c1C1CC1 [Example 89, 2-(2′-cyclopropyl-3′,6′-difluoro-2-methyl-4′-((6-(methylsulfonyl)-2,6-diazaspiro[3.3]heptan-2-yl)methyl)-[1,1′-biphenyl]-4-yl)-1,1,1,3,3,3-hexafluoropropan-2-ol]"
2,< 50,"CCc1cc(CN2CC3(CCS(=O)(=O)CC3)C2)ccc1-c1ccc(C(O)(C(F)(F)F)C(F)(F)F)cc1 [Example 3, 2-((2-ethyl-4′-(1,1,1,3,3,3-hexafluoro-2-hydroxypropan-2-yl)-[1,1′-biphenyl]-4-yl)methyl)-7-thia-2-azaspiro[3.5]nonane 7,7-dioxide]"
3,< 50,"CCc1cc(CN2CC3(C2)CN(S(C)(=O)=O)C3)cc(F)c1-c1ccc(C(O)(C(F)(F)F)C(F)(F)F)cc1 [Example 35, 2-(2′-ethyl-6′-fluoro-4′-((6-(methylsulfonyl)-2,6-diazaspiro[3.3]heptan-2-yl)methyl)-[1,1′-biphenyl]-4-yl)-1,1,1,3,3,3-hexafluoropropan-2-ol]"
4,< 50,"CCc1c(F)c(CN2CC3(C2)CN(S(C)(=O)=O)C3)cc(F)c1-c1ccc(C(O)(C(F)(F)F)C(F)(F)F)cc1 [Example 69, 2-(2′-ethyl-3′,6′-difluoro-4′-((6-(methylsulfonyl)-2,6-diazaspiro[3.3]heptan-2-yl)methyl)-[1,1′-biphenyl]-4-yl)-1,1,1,3,3,3-hexafluoropropan-2-ol]"
5,< 50,"CCc1cc(CN2CCC3(CC2)CN(S(C)(=O)=O)C3)ccc1-c1ccc(C(O)(C(F)(F)F)C(F)(F)F)cc1 [Example 4, 2-(2′-ethyl-4′-((2-(methylsulfonyl)-2,7-diazaspiro[3.5]nonan-7-yl)methyl)-[1,1′-biphenyl]-4-yl)-1,1,1,3,3,3-hexafluoropropan-2-ol]"
6,< 50,"CCc1c(F)c(CN2CC3(C2)CN(S(C)(=O)=O)C3)cc(F)c1-c1ccc(C(O)(C(F)(F)F)C(F)(F)F)cc1Cl [Example 72, 2-(2-chloro-2′-ethyl-3′,6′-difluoro-4′-((6-(methylsulfonyl)-2,6-diazaspiro[3.3]heptan-2-yl)methyl)-[1,1′-biphenyl]-4-yl)-1,1,1,3,3,3-hexafluoropropan-2-ol]"
7,< 50,"CC(C)c1c(F)c(CN2CC3(C2)CN(S(C)(=O)=O)C3)cc(F)c1-c1ccc(C(O)(C(F)(F)F)C(F)(F)F)cc1F [Example 86, 1,1,1,3,3,3-hexafluoro-2-(2,3′,6′-trifluoro-2′-isopropyl-4′-((6-(methylsulfonyl)-2,6-diazaspiro[3.3]heptan-2-yl)methyl)-[1,1′-biphenyl]-4-yl)propan-2-ol]"
8,< 50,"Cc1cc(C(O)(C(F)(F)F)C(F)(F)F)ccc1-c1cc(F)c(CN2CC3(C2)CN(S(C)(=O)=O)C3)cc1C(C)C [Example 79, 1,1,1,3,3,3-hexafluoro-2-(5′-fluoro-2′-isopropyl-2-methyl-4′-((6-(methylsulfonyl)-2,6-diazaspiro[3.3]heptan-2-yl)methyl)-[1,1′-biphenyl]-4-yl)propan-2-ol]"
